Test results: patent publication US9777039B2, “Somatostatin analogs and dimers thereof” (Ipsen Pharma S.A.S., priority 2012, dated 2017)
Like-named read-outs stand apart in the source and are kept apart here. Residues, ends and D or L forms follow the SMILES beside them.

What was measured:
hSSTR2 [1] = target: T1, hSSTR2 (Homo sapiens, UniProt P30874); test: Somatostatin receptor radioligand binding assay, hSSTR2
T1 construct: expressed in transfected cells
Protocol: (§1) The affinities of a test compound for the human somatostatin receptors were determined by radioligand binding assays in CHO-K1 cells stably transfected with each of the somatostatin receptor subtypes, hSSTR1-5. The cDNA coding sequences of the hSSTR1 (GenBank accession No. NM_001049.1), hSSTR2 (GenBank accession No. XM_012697.1), hSSTR3 (GenBank accession No. XM_009963.1), hSSTR4 (GenBank accession No. NM_001052.1) and hSSTR5 (GenBank accession No. XM_012565.1) were subcloned into the mammalian expression vector pcDNA3.1 (Life Technologies). Clonal cell lines stably expressing each of the somatostatin receptors were obtained by transfection into CHO-K1 cells (ATCC) and subsequently selected with culture media containing 0.8 mg/mL of G418 (Life Technologies).
(§2) Membranes for in vitro receptor binding assays were obtained by the following procedures. CHO-K1 cells expressing one of the somatostatin receptors were homogenized in ice-cold buffer with 10 mM Tris-HCl, 5 mM EDTA, 3 mM EGTA, 1 mM phenylmethylsuphonyl fluoride, pH 7.6, using Polytron PT10-35GT (Kinematica) at 18,000 rpm for 30 seconds and centrifuged at 500×g for 10 minutes. The supernatant containing the plasma membranes was centrifuged at 100,000×g for 30 minutes and the pellet was resuspended in buffer containing 20 mM glycine-glycine, 1 mM MgCl2, 250 mM sucrose, pH 7.2, for storage at −80° C.
For the hSSTR1, 2 and 5 assays, membranes and various concentrations of test compounds were incubated in 96-well plates for 60 minutes at 25° C. with 0.05 nM [^125I-Tyr^11]-SRIF-14 (for hSSTR1; PerkinElmer Life Science), 0.05 nM [^125I-Tyr]-seglitide (for hSSTR2; PerkinElmer Life Science) or 0.05 nM [^125I-Tyr]-DPhe-cyclo(Cys-Tyr-DTrp-Lys-Val-Cys)-Thr-NH2 (for hSSTR5; PerkinElmer Life Science) in 50 mM HEPES, 0.2% BSA, 0.1 mM MgCl2, pH 7.5.
The incubations were terminated by rapid filtration through GF/C glass microfiber filter plates (pre-wet with 0.3% polyethyleneimine and 0.1% BSA) using a 96-well cell harvester (Brandel). Plates were washed six times with 1 mL/well aliquots of ice-cold buffer containing 50 mM Tris buffer, pH 7.7. Specific binding is defined as the total radioligand bound minus the bound in the presence of 1000 nM SRIF-14.

hSSTR2 [2] = target: T1, hSSTR2; test: Intracellular calcium mobilization assay (FLIPR Calcium 4 assay kit); assay type: cell-based; settings: for Emax: maximal effect in percentage of the maximal effect of SRIF-14, read-out: hSSTR2 % Emax ± SEM
Protocol: The ability of select compounds according to the present invention to activate hSSTR2 was determined by the intracellular calcium mobilization assay using FLIPR Calcium 4 assay kit (Molecular Devices).
Cells expressing hSSTR2 were plated in 384-well microplates in tissue culture media and incubated for 16-24 hours at 37° C. in a humidified atmosphere with 5% CO2. Medium was replaced by loading buffer containing Hank's buffered saline, 20 mM HEPES, 2.5 mM probenecid and Calcium 4 dye, and the plates were incubated at 37° C. for 60 minutes. Various concentrations of the test compounds were applied to the cells during the fluorescence measurement with excitation at 485 nm and emission at 525 nm using the Flexstation III microplate reader (Molecular Devices).
The half maximal effective concentrations (EC50) were calculated by fitting data to sigmoid dose-response curves using GraphPad Prism version 5.03 (GraphPad Software, San Diego, Calif., USA). % Emax values represent the maximal effect of the test compound in percentage of the maximal effect of SRIF-14.
Reference Compound No. A, whose chemical name and corresponding structure are provided in Table V, was synthesized and its ability to activated hSSTR2 was determined by the same intracellular calcium mobilization assays using FLIPR Calcium 4 assay kit (Molecular Devices) and under the same experimental conditions for the test compounds, as described hereinabove, and the results thereof are provided in Table VI.

hSSTR1 = target: T2, hSSTR1 (Homo sapiens, UniProt P30872); test: Somatostatin receptor radioligand binding assay, hSSTR1; settings: CHO-K1 cell membranes, [125I-Tyr11]-SRIF-14; read-out: hSSTR1 Ki (nM) ± SEM
T2 construct: expressed in transfected cells; membranes
Protocol: as §1
as §2, with “C. […]” for “C.”

hSSTR3 = target: T3, hSSTR3 (Homo sapiens, UniProt P32745); test: Somatostatin receptor radioligand binding assay, hSSTR3; settings: CHO-K1 cell membranes, [125I-Tyr11]-SRIF-14; read-out: hSSTR3 Ki (nM) ± SEM
T3 construct: expressed in transfected cells; membranes
Protocol: as §1
as §2, with “C. […]” for “C.”

hSSTR4 = target: T4, hSSTR4 (Homo sapiens, UniProt P31391); test: Somatostatin receptor radioligand binding assay, hSSTR4; settings: CHO-K1 cell membranes, [125I-Tyr11]-SRIF-14; read-out: hSSTR4 Ki (nM) ± SEM
T4 construct: expressed in transfected cells; membranes
Protocol: as §1
as §2, with “C. […]” for “C.”

hSSTR5 = target: T5, hSSTR5 (Homo sapiens, UniProt P35346); test: Somatostatin receptor radioligand binding assay, hSSTR5; settings: CHO-K1 cell membranes, [125I-Tyr]-DPhe-cyclo(Cys-Tyr-DTrp-Lys-Val-Cys)-Thr-NH2; read-out: hSSTR5 Ki (nM) ± SEM
T5 construct: expressed in transfected cells; membranes
Protocol: as §1
as §2, with “C. […]” for “C.”

[3] = CHO-K1 cell membranes, [125I-Tyr]-seglitide, read-out: hSSTR2 Ki (nM) ± SEM
[4] = cells expressing hSSTR2, calcium mobilization, read-out: hSSTR2 EC50 (nM) ± SEM

T1 sequence (P30874 whole entry): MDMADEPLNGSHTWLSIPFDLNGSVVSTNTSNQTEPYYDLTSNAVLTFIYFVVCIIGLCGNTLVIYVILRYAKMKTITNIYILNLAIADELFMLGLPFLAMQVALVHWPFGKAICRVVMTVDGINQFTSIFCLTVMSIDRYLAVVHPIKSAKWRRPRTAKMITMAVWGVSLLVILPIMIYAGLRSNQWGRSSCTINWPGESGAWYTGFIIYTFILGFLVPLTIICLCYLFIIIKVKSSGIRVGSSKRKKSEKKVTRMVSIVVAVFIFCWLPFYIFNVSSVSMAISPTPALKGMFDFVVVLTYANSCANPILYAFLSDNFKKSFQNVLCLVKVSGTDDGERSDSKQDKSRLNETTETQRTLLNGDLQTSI
T5 sequence (P35346 whole entry): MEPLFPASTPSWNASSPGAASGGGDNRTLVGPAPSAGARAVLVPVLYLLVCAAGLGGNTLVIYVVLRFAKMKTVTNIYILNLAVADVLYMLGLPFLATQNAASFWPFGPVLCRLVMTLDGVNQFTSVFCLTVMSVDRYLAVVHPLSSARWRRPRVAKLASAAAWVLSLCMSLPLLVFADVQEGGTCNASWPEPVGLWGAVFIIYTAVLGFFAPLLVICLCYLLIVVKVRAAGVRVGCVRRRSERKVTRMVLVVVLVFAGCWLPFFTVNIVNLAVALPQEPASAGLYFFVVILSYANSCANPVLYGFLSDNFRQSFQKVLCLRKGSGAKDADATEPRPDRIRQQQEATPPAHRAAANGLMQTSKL
T3 sequence (P32745 whole entry): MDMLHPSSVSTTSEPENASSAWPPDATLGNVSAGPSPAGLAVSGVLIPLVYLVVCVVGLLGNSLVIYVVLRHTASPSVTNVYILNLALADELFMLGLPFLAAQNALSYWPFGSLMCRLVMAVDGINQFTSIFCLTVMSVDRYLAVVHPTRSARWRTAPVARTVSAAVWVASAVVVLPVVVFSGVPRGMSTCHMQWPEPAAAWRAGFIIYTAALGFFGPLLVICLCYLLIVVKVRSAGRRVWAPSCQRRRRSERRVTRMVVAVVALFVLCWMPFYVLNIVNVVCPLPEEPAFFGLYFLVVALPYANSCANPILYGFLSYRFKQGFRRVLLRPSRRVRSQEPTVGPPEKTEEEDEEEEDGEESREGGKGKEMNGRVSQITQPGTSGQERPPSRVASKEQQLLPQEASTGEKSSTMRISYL
T4 sequence (P31391 whole entry): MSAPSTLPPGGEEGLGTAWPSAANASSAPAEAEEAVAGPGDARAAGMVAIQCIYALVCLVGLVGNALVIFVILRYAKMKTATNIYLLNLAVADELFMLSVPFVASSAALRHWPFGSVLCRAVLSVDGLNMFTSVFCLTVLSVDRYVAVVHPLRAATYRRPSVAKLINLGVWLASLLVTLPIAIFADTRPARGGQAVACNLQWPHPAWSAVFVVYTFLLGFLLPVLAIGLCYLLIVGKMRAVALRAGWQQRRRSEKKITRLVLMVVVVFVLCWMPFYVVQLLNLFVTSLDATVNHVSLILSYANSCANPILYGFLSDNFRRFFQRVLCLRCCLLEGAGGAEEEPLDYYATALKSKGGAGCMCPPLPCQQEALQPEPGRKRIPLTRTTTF
T2 sequence (P30872 whole entry): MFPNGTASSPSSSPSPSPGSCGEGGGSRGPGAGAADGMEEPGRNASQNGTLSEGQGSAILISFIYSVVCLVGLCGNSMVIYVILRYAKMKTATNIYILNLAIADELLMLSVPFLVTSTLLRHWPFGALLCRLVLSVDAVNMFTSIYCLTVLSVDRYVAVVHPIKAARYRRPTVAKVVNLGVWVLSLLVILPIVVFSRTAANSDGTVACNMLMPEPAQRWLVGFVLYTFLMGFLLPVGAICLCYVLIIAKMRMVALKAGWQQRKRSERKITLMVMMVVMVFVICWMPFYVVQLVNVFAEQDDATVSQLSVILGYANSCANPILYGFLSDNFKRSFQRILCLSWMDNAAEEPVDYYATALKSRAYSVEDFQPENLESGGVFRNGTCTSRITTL

Compound | Ki (hSSTR2 [1]) [nM] | EC50 (hSSTR2 [2]) [nM] | Emax (hSSTR2 [2]) [%] | Ki (hSSTR1) [nM] | Ki (hSSTR2 [1]; [3]) [nM] | Ki (hSSTR3) [nM] | Ki (hSSTR4) [nM] | Ki (hSSTR5) [nM] | EC50 (hSSTR2 [2]; [4]) [nM]
C[C@@H](O)[C@@H]1NC(=O)[C@H](CCCCN)NC(=O)[C@@H](Cc2c[nH]c3ccccc23)NC(=O)[C@H](Cc2ccncc2)NC(=O)[C@H](Cc2ccccc2)NC(=O)[C@H](CCCNC(=N)N)NC(=O)[C@H](NC[C@H](Cc2ccc(O)cc2)NC(=O)CCc2cn(CC(=O)N[C@H](CN[C@@H]3CCCCNC(=O)[C@H](Cc4ccccc4)NC(=O)[C@H]([C@@H](C)O)NC(=O)[C@H](CCCCN)NC(=O)[C@@H](Cc4c[nH]c5ccccc45)NC(=O)[C@H](Cc4ccncc4)NC(=O)[C@H](Cc4ccccc4)NC(=O)[C@H](CCCNC(=N)N)NC3=O)Cc3ccc(O)cc3)nn2)CCCCNC(=O)[C@H](Cc2ccccc2)NC1=O [Compound 5, 1-[(ethan-2-oyl)-Tyr-psi(CH2NH)-cyclo(DLys-Arg-Phe-4Pal-DTrp-Lys-Thr-Phe)],4-[(propan-3-oyl)-Tyr-psi(CH2NH)-cyclo(DLys-Arg-Phe-4Pal-DTrp-Lys-Thr-Phe)]-1,2,3-triazole] | 0.08 | 3.3 | 88.6 ± 1.1 | – | – | – | – | – | –
C[C@@H](O)[C@@H]1NC(=O)[C@H](CCCCN)NC(=O)[C@@H](Cc2c[nH]c3ccccc23)NC(=O)[C@H](Cc2ccncc2)NC(=O)[C@H](Cc2ccccc2)NC(=O)[C@H](CCCNC(=N)N)NC(=O)[C@H](NC[C@@H](N)Cc2ccc(O)cc2)CCCCNC(=O)[C@H](Cc2ccccc2)NC1=O [Compound 21, Tyr-psi(CH2NH)-cyclo(DLys-Arg-Phe-4Pal-DTrp-Lys-Thr-Phe)] | – | – | 103 ± 0.2 | 271 ± 160 | 0.02 ± 0.02 | 5 | 112 ± 18.6 | 0.32 | 4.4 ± 3.7
C[C@@H](O)[C@@H]1NC(=O)[C@H](CCCCN)NC(=O)[C@@H](Cc2c[nH]c3ccccc23)NC(=O)[C@H](Cc2ccccc2)NC(=O)[C@H](Cc2ccccc2)NC(=O)[C@H](CCCNC(=N)N)NC(=O)[C@H](NC[C@H](Cc2ccc(O)cc2)NC(=O)CCc2cn(CC(=O)N[C@H](CN[C@@H]3CCCCNC(=O)[C@H](Cc4ccc(O)cc4)NC(=O)[C@H]([C@@H](C)O)NC(=O)[C@H](CCCCN)NC(=O)[C@@H](Cc4c[nH]c5ccccc45)NC(=O)[C@H](Cc4ccccc4)NC(=O)[C@H](Cc4ccccc4)NC(=O)[C@H](CCCNC(=N)N)NC3=O)Cc3ccc(O)cc3)nn2)CCCCNC(=O)[C@H](Cc2ccc(O)cc2)NC1=O [Compound 7, 1-[(ethan-2-oyl)-Tyr-psi(CH2NH)-cyclo(DLys-Arg-Phe-Phe-DTrp-Lys-Thr-Tyr)],4-[(propan-3-oyl)-Tyr-psi(CH2NH)-cyclo(DLys-Arg-Phe-Phe-DTrp-Lys-Thr-Tyr)]-1,2,3-triazole] | 0.17 | 28.5 ± 11.5 | 97.4 ± 1.2 | – | – | – | – | – | –
C[C@@H](O)[C@@H]1NC(=O)[C@H](CCCCN)NC(=O)[C@@H](Cc2c[nH]c3ccccc23)NC(=O)[C@H](Cc2ccncc2)NC(=O)[C@H](Cc2ccccc2)NC(=O)[C@H](CCCNC(=N)N)NC(=O)[C@H](N)CCCCNC(=O)[C@H](Cc2ccccc2)NC1=O [Compound 1, cyclo(DLys-Arg-Phe-4Pal-DTrp-Lys-Thr-Phe)] (HELM PEPTIDE1{[dK].R.F.[O=C([C@H](Cc1ccncc1)N[*:1])[*:2]].[dW].K.T.F}$PEPTIDE1,PEPTIDE1,1:R3-8:R2$$$V2.0) | – | – | 96.3 ± 5.5 | > 1000 | 0.47 ± 0.03 | 16.3 ± 7.1 | 76.3 ± 12.6 | 0.31 ± 0.1 | 9.1 ± 3.9
C[C@@H](O)[C@@H]1NC(=O)[C@H](CCCCN)NC(=O)[C@@H](Cc2c[nH]c3ccccc23)NC(=O)[C@H](Cc2ccccc2)NC(=O)[C@H](Cc2ccccc2)NC(=O)[C@H](CCCNC(=N)N)NC(=O)[C@H](NC[C@H](Cc2ccc(O)cc2)NC(=O)CCc2cn(CC(=O)N[C@H](CN[C@@H]3CCCCNC(=O)[C@H](Cc4ccc(F)cc4)NC(=O)[C@H]([C@@H](C)O)NC(=O)[C@H](CCCCN)NC(=O)[C@@H](Cc4c[nH]c5ccccc45)NC(=O)[C@H](Cc4ccccc4)NC(=O)[C@H](Cc4ccccc4)NC(=O)[C@H](CCCNC(=N)N)NC3=O)Cc3ccc(O)cc3)nn2)CCCCNC(=O)[C@H](Cc2ccc(F)cc2)NC1=O [Compound 6, 1-[(ethan-2-oyl)-Tyr-psi(CH2NH)-cyclo(DLys-Arg-Phe-Phe-DTrp-Lys-Thr-4FPhe)],4-[(propan-3-oyl)-Tyr-psi(CH2NH)-cyclo(DLys-Arg-Phe-Phe-DTrp-Lys-Thr-4FPhe)]-1,2,3-triazole] | 0.38 | 74.6 ± 15.6 | 93.6 ± 4.1 | – | – | – | – | – | –
